# According to US20090074790A1, “Methods for measuring transforming growth factor beta (TGF-beta) receptor signaling activity and uses thereof” (priority 2004, published 2009):
# System: human keratinocytes
# Assay: Growth of human keratinocytes (HKc/HPV16), TGFβ-induced growth arrest
# Details: read-out: IC50 of growth inhibition of human keratinocytes, dose-dependent
substance,measurement,value
TGFβ: Recombinant human TGFβ1 purchased from Austral Biologicals,IC50,~5 pM
